Test results reported in PMC4731470, “Inhibitory Effect of Bridged Nucleosides on Thermus aquaticus DNA Polymerase and Insight into the Binding Interactions” (PLoS ONE, 2016).

Experiments:
Taq DNA polymerase [1] = molecular target: T1, Taq DNA polymerase (Thermus aquaticus, UniProt P19821); assay: TaqMan qPCR (IC50 […]); EvaGreen primer extension assay (IC50 […]); format: biochemical
T1 construct: gene polA

Taq DNA polymerase [2] = molecular target: T1, Taq DNA polymerase; assay: TaqMan qPCR kinetics (double-reciprocal plot); IC50 also by TaqMan qPCR and EvaGreen primer extension assay; format: biochemical

T1 sequence (P19821 whole entry): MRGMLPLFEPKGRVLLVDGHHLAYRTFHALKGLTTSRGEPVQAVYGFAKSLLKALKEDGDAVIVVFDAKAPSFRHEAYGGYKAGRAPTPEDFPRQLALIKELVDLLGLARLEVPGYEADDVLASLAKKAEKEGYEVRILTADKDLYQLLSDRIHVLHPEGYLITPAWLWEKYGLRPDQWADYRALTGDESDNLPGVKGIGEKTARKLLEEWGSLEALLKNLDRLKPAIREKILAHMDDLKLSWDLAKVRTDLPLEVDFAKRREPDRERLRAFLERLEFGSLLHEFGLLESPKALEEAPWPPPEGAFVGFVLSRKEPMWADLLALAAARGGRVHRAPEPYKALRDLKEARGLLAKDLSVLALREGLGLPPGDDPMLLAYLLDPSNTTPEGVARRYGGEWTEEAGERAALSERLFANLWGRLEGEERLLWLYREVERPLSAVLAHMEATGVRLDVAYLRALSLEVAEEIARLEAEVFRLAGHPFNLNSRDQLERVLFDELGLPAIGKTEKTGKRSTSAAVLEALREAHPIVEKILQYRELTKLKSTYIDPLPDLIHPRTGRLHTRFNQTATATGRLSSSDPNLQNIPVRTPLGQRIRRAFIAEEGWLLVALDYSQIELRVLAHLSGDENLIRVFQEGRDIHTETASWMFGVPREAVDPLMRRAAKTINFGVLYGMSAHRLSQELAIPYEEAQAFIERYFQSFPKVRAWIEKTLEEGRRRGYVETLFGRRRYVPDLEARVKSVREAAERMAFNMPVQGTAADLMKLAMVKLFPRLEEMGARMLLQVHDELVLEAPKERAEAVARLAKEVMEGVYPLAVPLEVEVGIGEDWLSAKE

| IC50 (Taq DNA polymerase [1]) [µM] | Ki (Taq DNA polymerase [2]) [µM] | SMILES |
| --- | --- | --- |
| 300 ± 100 | – | Nc1ccn([C@H]2CC[C@@H](COP(=O)(O)OP(=O)(O)OP(=O)(O)O)O2)c(=O)n1 [ddCTP] |
| – | 9.7 ± 1.1 | Cc1cn([C@@H]2O[C@@]3(CO)CO[C@@H]2[C@@H]3O)c(=O)[nH]c1=O [2',4'-bridged thymidine] |
